Among the data in ChEMBL document CHEMBL1159350, “Hemolytic steroid disulfates from the far eastern starfish Pteraster pulvillus” (J Nat Prod, 2003) are HC50 values, retold here.

A short description of this series: Toxicity in mouse erythrocytes assessed as hemolytic activity. Type of series: cell-based, Erythrocyte.

Consider `CC(C)CCC[C@@H](COS(=O)(=O)O)[C@H]1CC[C@H]2[C@@H]3CC=C4C[C@H](OS(=O)(=O)O)CC[C@]4(C)[C@H]3CC[C@]12C.NCCc1ccc(O)cc1`, for which the concentration for 50% haemolysis (HC50) turned out to be 33 µM.
For `CC(C)CCC[C@@H](COS(=O)(=O)O)[C@H]1CC[C@H]2[C@@H]3CC[C@H]4[C@@H](O)[C@H](OS(=O)(=O)O)CC[C@]4(C)[C@H]3CC[C@]12C`, the concentration for 50% haemolysis (HC50) is 45 µM.
Regarding `CC(C)CCC[C@@H](COS(=O)(=O)O)[C@H]1CC[C@H]2[C@@H]3CC[C@H]4C[C@H](OS(=O)(=O)O)CC[C@]4(C)[C@H]3CC[C@]12C`, the concentration for 50% haemolysis (HC50) came out at 10 µM.
With `CC(C)CCC[C@@H](COS(=O)(=O)O)[C@H]1CC[C@H]2[C@@H]3CC=C4[C@@H](O)[C@H](OS(=O)(=O)O)CC[C@]4(C)[C@H]3CC[C@]12C` the figure was 80 µM; with `CC(C)CCC[C@@H](COS(=O)(=O)O)[C@H]1CC[C@H]2[C@@H]3CC[C@H]4C[C@H](OS(=O)(=O)O)CC[C@]4(C)[C@H]3CC[C@]12C.NCCc1ccc(O)cc1.NCCc1ccc(O)cc1`, 18 µM.
